Structures are written as SMILES.

This assay addresses T1, human α2A (α2 -C10)-adrenoceptor (Homo sapiens, UniProt P08913).
T1 construct: expressed in transfected cells; host or cells: S115 cells (recombinant mammalian S115 cell line), crude particulate homogenate
T1 sequence (P08913 1-465): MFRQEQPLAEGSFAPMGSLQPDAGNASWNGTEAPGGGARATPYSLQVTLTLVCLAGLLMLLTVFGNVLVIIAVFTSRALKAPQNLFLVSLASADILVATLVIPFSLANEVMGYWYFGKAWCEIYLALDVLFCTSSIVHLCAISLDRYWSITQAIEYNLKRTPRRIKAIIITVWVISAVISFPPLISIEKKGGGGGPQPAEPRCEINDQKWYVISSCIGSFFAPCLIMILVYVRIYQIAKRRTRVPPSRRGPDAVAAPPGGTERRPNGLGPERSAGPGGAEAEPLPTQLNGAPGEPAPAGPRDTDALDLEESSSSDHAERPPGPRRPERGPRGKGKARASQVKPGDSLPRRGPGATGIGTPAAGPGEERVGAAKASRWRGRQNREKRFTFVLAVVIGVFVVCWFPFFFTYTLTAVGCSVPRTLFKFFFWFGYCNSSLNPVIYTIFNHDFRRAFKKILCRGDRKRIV
Kind of assay: [3H]-rauwolscine radioligand receptor binding (competition) assay, α2A-adrenoceptor. To be noted: recombinant mammalian S115 cell line; 1 nM [3H]-rauwolscine; 50 mM KH2PO4 pH 7.5; 30 min at 25° C.; read-out: α2A aff (Ki values). The protocol:
The affinity of the test compounds on the α2 -adrenoceptor was established using the recombinant mammalian S115 cell line expressing the human α2A (α2 -C10)-adrenoceptor (7) in a radioligand receptor binding assay. The cells were harvested and suspended in 30 v/w of 50 mM Tris with 5 mM EDTA (pH 7.5 at 4° C.) and homogenized in Teflon-glass homogenizer. Cell homogenate was then centrifuged twice at 47,800×g (Sorvall RC-5C) for 30 min at 4° C. with re-suspension by two strokes in Tris/EDTA buffer. The final pellet was re-suspended in ten v/w of incubation buffer (50 mM KH2 PO4 buffer, pH 7.5 at 25° C.) and distributed in aliquots to be stored at -80° C. for later use.
In a competition binding experiment, the radioligands were incubated at 1 nM [^3 H]-rauwolscine with the cell suspension (20-50 μg of total protein per tube) with or without presence of a test compound in 50 mM KH2 PO4 (pH 7.5 at 25° C.) in a total volume of 0.25 ml. Non-specific binding of the radioligand was determined using 0.1 mM oxymetazoline. After a 30 min incubation at 25° C., incubation was terminated by rapid filtration through GF/B filters using a cell harvester. Inhibition experiments were analysed using a non-linear regression curve-fitting computer program to obtain Ki values.
Regarding `CN1CCc2c(cccc2OCCCCCC#N)C1` [Compound 5b, 5-(5-cyano-1-pentyloxy)-2-methyl-1,2,3,4-tetrahydroisoquinoline], the Ki turned out to be 1.04 µM.

On to `CN1CCc2cc(OCCCCCC#N)ccc2C1` [Compound 5c, 6-(5-cyano-1-pentyloxy)-2-methyl-1,2,3,4-tetrahydroisoquinoline], for which the Ki is 3.71 µM. In the case of `CN1CCc2c(cccc2OCc2ccc(F)c(F)c2)C1` [Compound 5d, 5-(3,4-difluorophenylmethoxy)-2-methyl-1,2,3,4-tetrahydroisoquinoline] it was 0.318 µM. In the case of `CN1CCc2cc(OCc3ccc(F)c(F)c3)ccc2C1` [Compound 5e, 6-(3,4-difluorophenylmethoxy)-2-methyl-1,2,3,4-tetrahydroisoquinoline] it was 1.43 µM. In the case of `CN1CCc2cccc(OCc3ccc(F)c(F)c3)c2C1` [Compound 5f, 8-(3,4-difluorophenylmethoxy)-2-methyl-1,2,3,4-tetrahydroisoquinoline] it was 0.49 µM. Consider `CCCCOc1cccc2c1CCN(CCC)C2` [Compound 5g, 5-butoxy-2-propyl-1,2,3,4-tetrahydroisoquinoline], for which the Ki came out at 0.264 µM. In the case of `CN1CCc2c(cccc2OCC2CCCCC2)C1` [Compound 5h, 5-cyclohexylmethoxy-2-methyl-1,2,3,4-tetrahydroisoquinoline] it was 0.75 µM; in that of `CN1CCc2cc(OCC3CCCCC3)ccc2C1` [Compound 5i, 6-cyclohexylmethoxy-2-methyl-1,2,3,4-tetrahydroisoquinoline], 0.977 µM; in that of `CN1CCc2cccc(OCC3CCCCC3)c2C1` [Compound 5j, 8-cyclohexylmethoxy-2-methyl-1,2,3,4-tetrahydroisoquinoline], 0.173 µM. Consider `CCCCCCCCCCCCCCOc1cccc2c1CCN(C)C2` [Compound 5k, 5-tetradecanyloxy-2-methyl-1,2,3,4-tetrahydroisoquinoline], for which the Ki was 6.49 µM. In the case of `CCCCCCCCCCCCCCOc1ccc2c(c1)CCN(C)C2` [Compound 5l, 6-tetradecanyloxy-2-methyl-1,2,3,4-tetrahydroisoquinoline] it was 0.266 µM; in that of `CCCCCCCCCCCCCCOc1cccc2c1CN(C)CC2` [Compound 5m, 8-tetradecanyloxy-2-methyl-1,2,3,4-tetrahydroisoquinoline], 25 µM.

The values are drawn from patent US6096752A, “Method for the preparation of tertiary amines, a compound useful therefor and alpha-2-receptor active tetrahydroisoquinoline derivatives” (priority 1998, dated 2000).
